Experimental data published in patent US6737383B1, “Herbicidal oxadiazolidines” (priority 1999, dated 2004).

Legend:
bedstraw = assay: Test B pre/postemergence bedstraw; format: in vivo, Galium aparine; conditions: Rate 62 g/ha, Postemergence; scale of 0 to 10 where 0 is no effect and 10 is complete control
From the text: (§1) Seeds of bedstraw (Galium aparine), blackgrass (Alopecurus myosuroides), surinam grass (Brachiaria decumbens), cocklebur (Xanthium strumarium), corn (Zea mays), crabgrass (Digitaria sanguinalis), giant foxtail (Setaria faberii), morningglory (Ipomoea hederacea), pigweed (Amaranthus retroflexus), rape (Brassica napus), soybean (Glycine max), sugar beet (Beta vulgaris), velvetleaf (Abutilon theophrasti), wheat (Triticum aestivum), wild oat (Avena fatua) and purple nutsedge (Cyperus rotundus) tubers were planted and treated preemnergence with test chemicals formulated in a non-phytotoxic solvent mixture which included a surfactant.
(§2) At the same time, these crop and weed species were also treated with postemergence applications of test chemicals formulated in the same manner. Plants ranged in height from 2 to 18 cm (1- to 4-leaf stage) for postemergence treatments. Plant species in the flood test consisted of rice (Oryza sativa), smallflower flatsedge (Cyperus difformis), duck salad (Heteranthera limosa) and bamyardgrass (Echinochloa crus-galli) grown to the 2-leaf stage for testing. Treated plants and controls were maintained in a greenhouse for twelve to sixteen days, after which all species were compared to controls and visually evaluated. Plant response ratings, summarized in Table B, are based on a scale of 0 to 10 where 0 is no effect and 10 is complete control. A dash (−) response means no test result.

blackgrass = assay: Test B pre/postemergence blackgrass; format: in vivo, Alopecurus myosuroides
In short: (§3)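 Herbicidal effect was estimated by eye on a ten-point control scale after plants spent twelve to sixteen days in a greenhouse following soil or foliar treatment. Foliar sprays targeted plants at one to four leaves; all doses were formulated in a non-phytotoxic solvent with surfactant.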

surinam grass = assay: Test B pre/postemergence surinam grass; format: in vivo, Brachiaria decumbens
In short: as §3

cocklebur = assay: Test B pre/postemergence cocklebur; format: in vivo, Xanthium strumarium
From the text: as §1, §2

corn = assay: Test B pre/postemergence corn; format: in vivo, Zea mays
From the text: as §1, §2

crabgrass = assay: Test B pre/postemergence crabgrass; format: in vivo, Digitaria sanguinalis
From the text: as §1, §2

giant foxtail = assay: Test B pre/postemergence giant foxtail; format: in vivo, Setaria faberii
In short: as §3

morningglory = assay: Test B pre/postemergence morningglory; format: in vivo, Ipomoea hederacea
In short: as §3

pigweed = assay: Test B pre/postemergence pigweed; format: in vivo, Amaranthus retroflexus
From the text: as §1, §2

rape = assay: Test B pre/postemergence rape; format: in vivo, Brassica napus
From the text: as §1, §2

soybean = assay: Test B pre/postemergence soybean; format: in vivo, Glycine max
From the text: as §1, §2

sugar beet = assay: Test B pre/postemergence sugar beet; format: in vivo, Beta vulgaris
From the text: as §1, §2

velvetleaf = assay: Test B pre/postemergence velvetleaf; format: in vivo, Abutilon theophrasti
In short: as §3

wheat = assay: Test B pre/postemergence wheat; format: in vivo, Triticum aestivum
From the text: as §1, §2

wild oat = assay: Test B pre/postemergence wild oat; format: in vivo, Avena fatua
From the text: as §1, §2

purple nutsedge = assay: Test B pre/postemergence purple nutsedge; format: in vivo, Cyperus rotundus
In short: as §3

[1] = Preemergence, Rate 62 g/ha, scale of 0 to 10 where 0 is no effect and 10 is complete control
[2] = Preemergence, Rate 250 g/ha, scale of 0 to 10 where 0 is no effect and 10 is complete control
[3] = Preemergence, Rate 500 g/ha, scale of 0 to 10 where 0 is no effect and 10 is complete control
[4] = Rate 62 g/ha, Postemergence, scale of 0 to 10 where 0 is no effect and 10 is complete control
[5] = Rate 125 g/ha, Postemergence, scale 0 to 10
[6] = Rate 125 g/ha, Preemergence, scale of 0 to 10 where 0 is no effect and 10 is complete control
[7] = Rate 500 g/ha, Postemergence, scale 0 to 10, 0 no effect, 10 complete control

CC(C)N(C(=O)n1oc(=O)n(COCc2ccccc2)c1=O)c1ccc(F)cc1 [Compound 261]
Bedstraw plant response rating (bedstraw): 0 | Blackgrass plant response rating (blackgrass; [1]): 0 | Blackgrass plant response rating (blackgrass; [2]): 1 | Plant response rating, Blackgrass (blackgrass; [3]): 4 | Blackgrass plant response rating (blackgrass; [4]): 0 | Blackgrass plant response rating (blackgrass; [5]): 0 | Blackgrass plant response rating (blackgrass; [6]): 0 | Plant response rating (0 to 10; 0 is no effect, 10 is complete control), Blackgrass (blackgrass; Rate 250 g/ha, Postemergence): 0 | Blackgrass plant response rating (blackgrass; [7]): 5 | B. signalgrass plant response rating (surinam grass; [1]): 0 | B. signalgrass plant response rating (surinam grass; [2]): 0 | Plant response rating, B. signalgrass (surinam grass; [3]): 3 | B. signalgrass plant response rating (surinam grass; [4]): 0 | B. signalgrass plant response rating (surinam grass; Rate 125 g/ha, Postemergence, scale 0 (no effect) to 10 (complete control)): 0 | B. signalgrass plant response rating (surinam grass; [6]): 0 | Plant response rating (0 to 10; 0 is no effect, 10 is complete control), B. signalgrass (surinam grass; Rate 250 g/ha, Postemergence): 0 | B. signalgrass plant response rating (surinam grass; [7]): 0 | Cocklebur plant response rating (cocklebur; [1]): 0 | Cocklebur plant response rating (cocklebur; [2]): 0 | Plant response rating, Cocklebur (cocklebur; [3]): 0 | Cocklebur plant response rating (cocklebur; [4]): 0 | Cocklebur plant response rating (cocklebur; [5]): 0 | Cocklebur plant response rating (cocklebur; [6]): 0 | Plant response rating (0 to 10; 0 is no effect, 10 is complete control), Cocklebur (cocklebur; Rate 250 g/ha, Postemergence): 0 | Cocklebur plant response rating (cocklebur; [7]): 1 | Corn plant response rating (corn; [1]): 0 | Corn plant response rating (corn; [2]): 0 | Plant response rating, Corn (corn; [3]): 0 | Corn plant response rating (corn; [4]): 0 | Corn plant response rating (corn; [5]): 0 | Corn plant response rating (corn; [6]): 0 | Plant response rating (0 to 10; 0 is no effect, 10 is complete control), Corn (corn; Rate 250 g/ha, Postemergence): 0 | Corn plant response rating (corn; [7]): 0 | Crabgrass plant response rating (crabgrass; [1]): 2 | Crabgrass plant response rating (crabgrass; [2]): 5 | Plant response rating, Crabgrass (crabgrass; [3]): 5 | Crabgrass plant response rating (crabgrass; [6]): 3 | Plant response rating (0 to 10; 0 is no effect, 10 is complete control), Crabgrass (crabgrass; Rate 250 g/ha, Postemergence): 0 | Crabgrass plant response rating (crabgrass; [7]): 0 | Giant foxtail plant response rating (giant foxtail; [1]): 8 | Giant foxtail plant response rating (giant foxtail; [2]): 9 | Plant response rating, Giant foxtail (giant foxtail; [3]): 9 | Giant foxtail plant response rating (giant foxtail; [6]): 8 | Plant response rating (0 to 10; 0 is no effect, 10 is complete control), Giant foxtail (giant foxtail; Rate 250 g/ha, Postemergence): 0 | Giant foxtail plant response rating (giant foxtail; [7]): 0 | Morningglory plant response rating (morningglory; [1]): 0 | Morningglory plant response rating (morningglory; [2]): 0 | Plant response rating, Morningglory (morningglory; [3]): 0 | Morningglory plant response rating (morningglory; [6]): 0 | Plant response rating (0 to 10; 0 is no effect, 10 is complete control), Morningglory (morningglory; Rate 250 g/ha, Postemergence): 6 | Morningglory plant response rating (morningglory; [7]): 6 | Redroot pigweed plant response rating (pigweed; [1]): 0 | Redroot pigweed plant response rating (pigweed; [2]): 0 | Plant response rating, Redroot pigweed (pigweed; [3]): 0 | Redroot pigweed plant response rating (pigweed; [6]): 0 | Plant response rating (0 to 10; 0 is no effect, 10 is complete control), Redroot pigweed (pigweed; Rate 250 g/ha, Postemergence): 1 | Redroot pigweed plant response rating (pigweed; [7]): 2 | Rape plant response rating (rape; [1]): 0 | Rape plant response rating (rape; [2]): 0 | Plant response rating, Rape (rape; [3]): 0 | Rape plant response rating (rape; [6]): 0 | Plant response rating (0 to 10; 0 is no effect, 10 is complete control), Rape (rape; Rate 250 g/ha, Postemergence): 0 | Rape plant response rating (rape; [7]): 0 | Soybean plant response rating (soybean; [1]): 0 | Soybean plant response rating (soybean; [2]): 0 | Plant response rating, Soybean (soybean; [3]): 0 | Soybean plant response rating (soybean; [6]): 0 | Soybean plant response rating (soybean; [7]): 4 | Sugarbeets plant response rating (sugar beet; [1]): 0 | Sugarbeets plant response rating (sugar beet; [2]): 0 | Plant response rating, Sugarbeets (sugar beet; [3]): 0 | Sugarbeets plant response rating (sugar beet; [6]): 0 | Sugarbeets plant response rating (sugar beet; [7]): 0 | Velvetleaf plant response rating (velvetleaf; [1]): 0 | Velvetleaf plant response rating (velvetleaf; [2]): 0 | Plant response rating, Velvetleaf (velvetleaf; [3]): 0 | Velvetleaf plant response rating (velvetleaf; [6]): 0 | Velvetleaf plant response rating (velvetleaf; [7]): 1 | Wheat plant response rating (wheat; [1]): 0 | Wheat plant response rating (wheat; [2]): 0 | Plant response rating, Wheat (wheat; [3]): 0 | Wheat plant response rating (wheat; [6]): 0 | Wheat plant response rating (wheat; [7]): 2 | Wild oats plant response rating (wild oat; [1]): 0 | Wild oats plant response rating (wild oat; [2]): 0 | Plant response rating, Wild oats (wild oat; [3]): 0 | Wild oats plant response rating (wild oat; [6]): 0 | Wild oats plant response rating (wild oat; [7]): 0 | Nutsedge plant response rating (purple nutsedge; [2]): 0 | Plant response rating, Nutsedge (purple nutsedge; [3]): 0 | Nutsedge plant response rating (purple nutsedge; [6]): 0 | Plant response rating (0 to 10; 0 is no effect, 10 is complete control), Nutsedge (purple nutsedge; Rate 250 g/ha, Postemergence): 0 | Nutsedge plant response rating (purple nutsedge; [7]): 0
